≈ marks a conversion by molar mass, not a printed value.
How the values were obtained:
Enterococcus faecalis [1] = assay: Antibacterial activity against vancomycin resistant Enterococcus faecalis; type: functional; conditions: GC 2242
Staphylococcus aureus [2] = assay: Antibacterial activity against Staphylococcus aureus; type: functional; conditions: GC 4543
Streptococcus pneumoniae = assay: Antibacterial activity against penicillin resistant Streptococcus pneumoniae; type: functional; conditions: GC 1894
[3] = target: T1, UDP-N-acetylmuramate--L-alanine ligase (Staphylococcus aureus, UniProt O31211); assay: Inhibitory activity against MurC in Staphylococcus aureus
T1 sequence (O31211 whole entry): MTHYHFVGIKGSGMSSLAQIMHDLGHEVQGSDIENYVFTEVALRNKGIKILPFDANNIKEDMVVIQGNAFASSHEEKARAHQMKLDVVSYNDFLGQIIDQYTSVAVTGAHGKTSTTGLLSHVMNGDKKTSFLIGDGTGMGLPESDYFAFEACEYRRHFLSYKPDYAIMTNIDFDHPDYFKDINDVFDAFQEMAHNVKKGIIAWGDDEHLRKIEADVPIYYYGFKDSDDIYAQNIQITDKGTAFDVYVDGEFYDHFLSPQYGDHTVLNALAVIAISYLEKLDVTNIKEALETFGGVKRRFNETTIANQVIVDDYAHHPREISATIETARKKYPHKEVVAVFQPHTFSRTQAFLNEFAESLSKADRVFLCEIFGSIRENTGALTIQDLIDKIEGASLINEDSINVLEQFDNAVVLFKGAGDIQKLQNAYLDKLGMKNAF

Enterococcus faecalis [4] = assay: Antibacterial activity against Enterococcus faecalis; type: functional; conditions: GC 4555
[5] = target: UDP-N-acetylglucosamine 1-carboxyvinyltransferase (Escherichia coli K-12, UniProt P0A749); assay: Inhibitory activity against MurA in Escherichia coli
Staphylococcus aureus [6] = assay: Antibacterial activity against methicillin resistant Staphylococcus aureus; type: functional; conditions: GC 1131
[7] = target: T2, UDP-N-acetylmuramoylalanine--D-glutamate ligase (Staphylococcus aureus, UniProt P0A091); assay: Inhibitory activity against MurD in Staphylococcus aureus
T2 sequence (P0A091 whole entry): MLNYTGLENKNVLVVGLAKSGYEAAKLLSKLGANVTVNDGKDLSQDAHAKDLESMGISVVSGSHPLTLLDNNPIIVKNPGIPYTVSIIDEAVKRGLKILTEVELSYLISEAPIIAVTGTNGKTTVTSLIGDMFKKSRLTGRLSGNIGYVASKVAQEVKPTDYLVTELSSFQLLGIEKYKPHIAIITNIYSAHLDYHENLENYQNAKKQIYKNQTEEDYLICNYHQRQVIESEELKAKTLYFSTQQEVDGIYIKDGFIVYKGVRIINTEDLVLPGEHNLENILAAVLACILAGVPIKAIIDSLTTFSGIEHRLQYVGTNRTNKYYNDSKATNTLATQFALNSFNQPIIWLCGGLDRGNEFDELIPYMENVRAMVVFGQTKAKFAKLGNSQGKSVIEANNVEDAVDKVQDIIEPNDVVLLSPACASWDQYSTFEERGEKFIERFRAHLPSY

[8] = target: T3, UDP-N-acetylenolpyruvoylglucosamine reductase (Escherichia coli K-12, UniProt P08373); assay: Inhibitory activity against MurB in Escherichia coli
T3 sequence (P08373 whole entry): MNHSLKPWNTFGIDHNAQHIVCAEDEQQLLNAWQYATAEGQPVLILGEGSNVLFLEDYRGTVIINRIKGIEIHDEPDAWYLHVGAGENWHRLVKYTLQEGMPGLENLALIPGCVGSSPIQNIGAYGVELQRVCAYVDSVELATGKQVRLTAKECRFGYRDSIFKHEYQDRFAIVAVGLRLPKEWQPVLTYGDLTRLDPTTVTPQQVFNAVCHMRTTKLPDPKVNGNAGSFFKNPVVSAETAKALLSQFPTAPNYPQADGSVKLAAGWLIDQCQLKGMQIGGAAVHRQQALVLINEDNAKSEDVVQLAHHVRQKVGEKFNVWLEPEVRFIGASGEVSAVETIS

[9] = target: T4, UDP-N-acetylmuramoylalanine--D-glutamate ligase (Escherichia coli K-12, UniProt P14900); assay: Inhibitory activity against MurD in Escherichia coli
T4 sequence (P14900 whole entry): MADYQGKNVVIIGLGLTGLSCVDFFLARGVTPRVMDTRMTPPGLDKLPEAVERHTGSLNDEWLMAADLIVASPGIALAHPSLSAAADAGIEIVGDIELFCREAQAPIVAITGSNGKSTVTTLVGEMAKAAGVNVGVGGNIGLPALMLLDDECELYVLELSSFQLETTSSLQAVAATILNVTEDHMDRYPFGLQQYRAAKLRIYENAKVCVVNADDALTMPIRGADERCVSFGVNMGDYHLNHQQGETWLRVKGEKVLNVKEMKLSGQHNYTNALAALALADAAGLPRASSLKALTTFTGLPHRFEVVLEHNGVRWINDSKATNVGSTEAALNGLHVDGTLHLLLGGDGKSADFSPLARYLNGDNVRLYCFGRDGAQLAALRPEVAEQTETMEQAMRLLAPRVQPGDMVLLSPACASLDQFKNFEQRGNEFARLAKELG

[10] = target: UDP-N-acetylmuramate--L-alanine ligase (Escherichia coli K-12, UniProt P17952); assay: Inhibitory activity against MurC in Escherichia coli
[11] = target: T5, UDP-N-acetylglucosamine 1-carboxyvinyltransferase 1 (Staphylococcus aureus subsp. aureus N315, UniProt P84058); assay: Inhibitory activity against MurA in Staphylococcus aureus
T5 sequence (P84058 whole entry): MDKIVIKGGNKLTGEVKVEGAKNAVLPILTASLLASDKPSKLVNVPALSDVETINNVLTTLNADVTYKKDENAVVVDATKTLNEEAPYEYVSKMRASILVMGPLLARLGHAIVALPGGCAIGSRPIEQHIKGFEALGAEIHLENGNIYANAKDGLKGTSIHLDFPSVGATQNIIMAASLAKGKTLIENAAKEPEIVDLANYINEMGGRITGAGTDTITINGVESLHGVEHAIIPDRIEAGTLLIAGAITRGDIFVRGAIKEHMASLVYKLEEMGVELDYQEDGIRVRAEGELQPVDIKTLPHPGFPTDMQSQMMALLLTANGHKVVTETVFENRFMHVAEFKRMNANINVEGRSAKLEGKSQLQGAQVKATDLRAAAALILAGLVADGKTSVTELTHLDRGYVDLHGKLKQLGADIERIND

Sequence of UDP-N-acetylglucosamine 1-carboxyvinyltransferase (P0A749 whole entry): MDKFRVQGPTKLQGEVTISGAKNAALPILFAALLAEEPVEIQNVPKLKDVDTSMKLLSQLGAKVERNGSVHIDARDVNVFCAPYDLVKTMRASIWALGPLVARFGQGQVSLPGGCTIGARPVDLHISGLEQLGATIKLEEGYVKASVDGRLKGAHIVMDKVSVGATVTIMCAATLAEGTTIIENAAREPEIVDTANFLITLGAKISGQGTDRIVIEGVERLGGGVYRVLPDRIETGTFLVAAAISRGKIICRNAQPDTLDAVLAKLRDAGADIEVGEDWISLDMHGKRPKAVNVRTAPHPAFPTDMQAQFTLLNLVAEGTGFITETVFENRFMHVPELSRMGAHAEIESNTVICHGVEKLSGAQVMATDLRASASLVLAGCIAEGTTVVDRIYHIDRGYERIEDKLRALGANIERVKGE
Sequence of UDP-N-acetylmuramate--L-alanine ligase (Escherichia coli K-12, UniProt P17952) (P17952 whole entry): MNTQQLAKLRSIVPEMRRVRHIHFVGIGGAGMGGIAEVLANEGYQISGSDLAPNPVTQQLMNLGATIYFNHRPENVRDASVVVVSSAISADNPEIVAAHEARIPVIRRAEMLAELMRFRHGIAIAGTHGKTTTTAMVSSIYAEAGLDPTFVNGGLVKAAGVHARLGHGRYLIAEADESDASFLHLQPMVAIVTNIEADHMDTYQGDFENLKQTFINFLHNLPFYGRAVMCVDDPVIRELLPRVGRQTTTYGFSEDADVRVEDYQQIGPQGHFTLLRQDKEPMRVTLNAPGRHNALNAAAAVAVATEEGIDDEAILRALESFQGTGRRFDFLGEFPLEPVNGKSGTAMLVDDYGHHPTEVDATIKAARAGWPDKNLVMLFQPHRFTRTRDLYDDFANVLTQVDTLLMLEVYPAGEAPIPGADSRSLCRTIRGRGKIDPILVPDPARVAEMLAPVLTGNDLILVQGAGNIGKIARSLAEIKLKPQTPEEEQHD

SMILES | MIC (Enterococcus faecalis [1]) | MIC (Staphylococcus aureus [2]) | MIC (Streptococcus pneumoniae) | IC50 [3] | MIC (Enterococcus faecalis [4]) | IC50 [5] | MIC (Staphylococcus aureus [6]) | IC50 [7] | IC50 [8] | IC50 [9] | IC50 [10] | IC50 [11]
O=C1O/C(=C\c2ccccc2-c2ccc(Cl)c(Cl)c2)C(O)=C1c1ccc(Cl)c(Cl)c1 | 0.5 µg/mL (≈ 1.05 µM) | 0.25 µg/mL (≈ 0.523 µM) | ≤ 0.12 µg/mL | 37.6 µM | 1 µg/mL (≈ 2.09 µM) | 6.27 µM | 0.5 µg/mL (≈ 1.05 µM) | 10.5 µM |  |  |  | 
Cc1ccccc1-c1ccc(/C=C2\OC(O)=C(c3cc(Cl)cc(Cl)c3)C2=O)cc1C | 0.5 µg/mL (≈ 1.14 µM) | 0.5 µg/mL (≈ 1.14 µM) | ≤ 0.12 µg/mL | 52.6 µM | 2 µg/mL (≈ 4.57 µM) | 4.57 µM | 0.5 µg/mL (≈ 1.14 µM) | 20.6 µM | 2.29 µM |  |  | 
COc1ccccc1-c1ccc(/C=C2\OC(O)=C(c3cc(Cl)cc(Cl)c3)C2=O)cc1OC | 8 µg/mL (≈ 17 µM) | 2 µg/mL (≈ 4.26 µM) | 0.5 µg/mL (≈ 1.07 µM) |  | 8 µg/mL (≈ 17 µM) | 36.2 µM | 2 µg/mL (≈ 4.26 µM) |  | 12.8 µM | > 53.3 µM | 12.8 µM | 
O=C1O/C(=C\c2cccc(-c3cc(Cl)cc(Cl)c3)c2)C(O)=C1c1cc(Cl)cc(Cl)c1 | 0.5 µg/mL (≈ 1.05 µM) | 0.25 µg/mL (≈ 0.523 µM) | 0.25 µg/mL (≈ 0.523 µM) |  | 1 µg/mL (≈ 2.09 µM) | 4.18 µM | 0.25 µg/mL (≈ 0.523 µM) | 12.5 µM |  |  |  | 
O=C1O/C(=C\c2cc(C(F)(F)F)ccc2Cl)C(O)=C1c1ccc(N2CCOCC2)c(F)c1 | 128 µg/mL (≈ 272 µM) | 128 µg/mL (≈ 272 µM) | 16 µg/mL (≈ 34.1 µM) | > 53.2 µM | 128 µg/mL (≈ 272 µM) | > 53.2 µM | 64 µg/mL (≈ 136 µM) | > 53.2 µM | 21.3 µM |  |  | 
O=C1O/C(=C\c2cccc(C(F)(F)F)c2)C(O)=C1c1ccc(Cl)cc1 | 8 µg/mL (≈ 21.8 µM) | 8 µg/mL (≈ 21.8 µM) | 1 µg/mL (≈ 2.73 µM) |  | 16 µg/mL (≈ 43.6 µM) | 38.2 µM | 16 µg/mL (≈ 43.6 µM) |  | 24.5 µM | > 68.2 µM | 16.4 µM | 
COc1cc(/C=C2\OC(O)=C(c3cc(Cl)cc(Cl)c3)C2=O)ccc1-c1ccccc1C(F)(F)F | 1 µg/mL (≈ 1.97 µM) | 0.5 µg/mL (≈ 0.986 µM) | 0.5 µg/mL (≈ 0.986 µM) | 39.4 µM | 2 µg/mL (≈ 3.94 µM) | 7.89 µM | 0.5 µg/mL (≈ 0.986 µM) | 33.5 µM | 3.94 µM |  |  | 
COc1ccc(C2=C(O)O/C(=C\c3cccc4ccccc34)C2=O)cc1 | 32 µg/mL (≈ 92.9 µM) | 64 µg/mL (≈ 186 µM) | 8 µg/mL (≈ 23.2 µM) |  | > 128 µg/mL | > 72.6 µM | 32 µg/mL (≈ 92.9 µM) |  | > 72.6 µM | > 72.6 µM | 46.5 µM | 
Cc1cc(/C=C2\OC(O)=C(c3cccc(Cl)c3)C2=O)ccc1-c1ccccc1C(F)(F)F | 2 µg/mL (≈ 4.38 µM) | 1 µg/mL (≈ 2.19 µM) | ≤ 0.12 µg/mL | 32.8 µM | 4 µg/mL (≈ 8.76 µM) | 8.76 µM | 2 µg/mL (≈ 4.38 µM) | 26.3 µM | 6.57 µM |  |  | 
COc1ccc(C2=C(O)O/C(=C\c3cccc(C(F)(F)F)c3)C2=O)cc1 | 64 µg/mL (≈ 177 µM) | 128 µg/mL (≈ 353 µM) | 2 µg/mL (≈ 5.52 µM) |  | 128 µg/mL (≈ 353 µM) | > 69 µM | 1 µg/mL (≈ 2.76 µM) |  | > 69 µM | 69 µM | 38.6 µM | 
Cc1cc(/C=C2\OC(O)=C(c3cc(Cl)cc(Cl)c3)C2=O)ccc1-c1ccccc1C(F)(F)F | 1 µg/mL (≈ 2.04 µM) | 0.5 µg/mL (≈ 1.02 µM) | 0.5 µg/mL (≈ 1.02 µM) | > 50.9 µM | 2 µg/mL (≈ 4.07 µM) |  | 0.5 µg/mL (≈ 1.02 µM) | 48.9 µM | 6.11 µM |  |  | 4.07 µM
O=C1O/C(=C\c2cccc(C(F)(F)F)c2)C(O)=C1c1ccc(-c2ccccc2)c(F)c1 | 0.25 µg/mL (≈ 0.586 µM) | 2 µg/mL (≈ 4.69 µM) | 0.25 µg/mL (≈ 0.586 µM) |  | 1 µg/mL (≈ 2.35 µM) | 23.5 µM | 2 µg/mL (≈ 4.69 µM) |  |  | > 58.6 µM | 18.8 µM | 
